Data on eight compounds can be found in patent publication US8309546B2, “Morpholinopurine derivatives” (Daiichi Sankyo Company, Limited, priority 2008, dated 2012).

Experiment [1] concerns the target PI3Kα (Homo sapiens, UniProt P42336). Description: PI3K kinase activity inhibition assay. In kind it is biochemical. The following applies: Kinase-Glo Plus ATP detection, read-out: IC50 against PI3K. As to the method: PI3Kα kinase activity was determined in the presence and absence of a test compound. The test compound was dissolved in DMSO and diluted serially with an ATP solution (30 μm ATP, 50 mM HEPES, pH 7.4, 50 mM NaCl, 0.05% CHAPS, 10 mM MgCl2, and 5 mM dithiothreitol [DTT]). First, 7 μl each of the serially diluted test compound solutions was added to each well of a black 384-well plate. Subsequently, 7 μl of a phosphatidylinositol 4,5-bisphosphate (PIP2) solution (45 μm PIP2, 50 mM HEPES, pH 7.4, 50 mM NaCl, 0.05% CHAPS, 10 mM MgCl2, and 5 mM DTT) was added to each well of the 384-well plate. Finally, 7 μl of a solution containing PI3Kα (50 nM PI3Kα, 50 mM HEPES, pH 7.4, 50 mM NaCl, 0.05% CHAPS, 10 mM MgCl2, and 5 mM DTT) was added to each well of the 384-well plate to initiate a reaction. The mixture was reacted at room temperature for 2 hours and then 21 μl of the Kinase-Glo Plusreagent (Promega) was, added to each well of the 384-well plate to terminate the reaction. After the termination of the reaction, the solution was left standing for 15 minutes and then luminescence was measured with ARVO (PerkinElmer Co., Ltd.) to detect ATP remaining in the reaction solution.
The amount of ATP consumed in the reaction was obtained for each well and used as an indicator of PI3Kαkinase activity. The PI3Kα kinase activity in wells not containing the test compound was calculated by the following formula (1). Furthermore, the PI3Kα kinase activity in wells containing the test compound was calculated by the following formula (2). The PI3Kα inhibitory activity (%) of the test compound was calculated by the following formula (3). PI3Kα kinase activity in wells not containing the test compound=B−C (1) PI3Kα kinase activity in wells containing the test compound=B−P (2) PI3Kα inhibitory activity (%) of test compound=100−100×[(B−P)/(B−C)] (3) B: Measured value in wells not containing PI3Kα or the test compound C: Measured value in wells containing PI3Kα and not containing the test compound P: Measured value in wells containing PI3Kα and the test compound
Furthermore, an optimal curve was calculated with Graph Pad Prism 4 using concentrations of the serially diluted test compound solutions and PI3Kα inhibitory activity (%) at each concentration to obtain the concentration showing 50% inhibition as the IC50 value of PI3Kα inhibitory activity.

Experiment [2] concerns the target T1, human mTOR (His-tagged mTOR (1362C)) (Homo sapiens, UniProt P42345).
T1 construct: the 1362 to 2549 amino acid portion on the C terminus side of human mTOR; His tag (N); made in house
Description: mTOR kinase activity inhibition assay. In kind it is biochemical. The settings on record: HTRF, read-out: IC50 against mTOR. As to the method:
The mTOR kinase activity was determined in the presence and absence of a test compound. A substrate peptide is phosphorylated by mTOR kinase activity. A complex of streptavidin-XL665 and anti-phosphorylated S6K (Thr389) antibody-anti-mouse IgG-cryptate binds to this phosphorylated peptide. At this time, irradiation of excitation light induces transfer of fluorescence resonance energy from the excited cryptate to XL665, emitting fluorescence at 665 nm. Utilizing this principle, mTOR kinase activity was detected. When the mTOR inhibitor is present, phosphorylation of a substrate peptide is inhibited, and the biding of the above-mentioned complex to the substrate peptide is inhibited.
A His tag was introduced into the N terminus end of the 1362 to 2549 amino acid portion on the C terminus side of human mTOR, and a cell line was prepared, so that His-tagged mTOR should be constantly expressed in a HEK293 cell. A cell lysate was prepared from this HEK293 cell which constantly expressed His-tagged mTOR (1362C), and a crude product of His-tagged mTOR (1362C) was obtained by a usual method utilizing His tag.
Subsequently, an mTOR enzyme solution was prepared which contained the above-mentioned His-tagged mTOR (1362C) enzyme and 8 μg/ml biotinylated peptide (Biotin-Ahx-[…]-amide [Sigma]), as well as 50 mM HEPES (pH 7.5), 20 mM MnCl2, 1 mg/ml BSA, a suitable amount of protease inhibitor cocktail (Complete EDTA free, Roche Ltd.), 100 ng/ml calyculin A, and 4 μg/ml cantharidin as other components.
The test compound was dissolved in dimethyl sulfoxide (DMSO) and serially diluted with 20 μm ATP solution (50 mM HEPES (pH 7.5), 20 μM ATP) to obtain concentrations required for the assay. 5 μl of this compound solution was added to each well of a 384-well small volume white plate manufactured by Greiner Bio-One Co., Ltd.
5 μl of the mTOR enzyme solution was added to the above-mentioned well containing the test compound and the resulting mixture was left standing for 3 hours room temperature to proceed an enzymatic reaction.
The same procedure was performed using a solution obtained by dissolving DMSO in 20 μM ATP solution as a positive control and a solution obtained by dissolving DMSO in 50 mM HEPES buffer (pH 7.5) as a negative control.
After the enzymatic reaction, 5 μl each of an europium solution (a solution obtained by dissolving anti-mouse IgG-cryptate [SCETI Medical Labo K.K.] and anti-phosphorylation S6K [Thr389] antibody [Cell Signaling Technology Inc.] in 50 mM HEPES [pH 7.5], 100 mM EDTA, and 1.5 mg/ml BSA) and an XL665 solution (a solution obtained by dissolving Streptavidin-XL 665 [SCETI Medical Labo K.K.] in 50 mM HEPES [pH 7.5], 100 mM EDTA, 0.8 M KF, and 1.5 mg/ml BSA) were added in this order and mixed and the resulting mixture was left standing overnight at 4° C. On the following day, the mixture was returned to room temperature and then irradiated with 337-nm excitation light and fluorescence at 620 and 665 nm was measured with RUBYstar (BMG LABTECH JAPAN Ltd.).
mTOR inhibitory activity (%) was calculated using the ratio calculated from the measured values as an indicator of enzyme activity. Here, the ratio was calculated by the following formula (1). Ratio=10,000×fluorescence at 665 nm/fluorescence at 620 nm (1)
mTOR enzyme inhibitory activity (%) was calculated by the following formula (2). mTOR enzyme inhibitory activity (%)=100×[(P−S)/(P−N)] (2) P: Ratio in positive control well N: Ratio in negative control well S: Ratio in well containing the test compound
Furthermore, an optimal curve was created using the concentrations of the serially diluted test compound solutions and mTOR enzyme inhibitory activity (%) at each concentration to obtain the concentration showing 50% inhibition as the IC50 value of mTOR enzyme inhibitory activity.

The test system of experiment [3] is human endometrial cancer cell strain AN3CA. Description: Cell growth inhibition test (MTT), AN3CA. It counts as cell-based. The following applies: AN3-CA, 72 h, 3 days culture, read-out: concentration exhibiting anti-cell effect (GI50). As to the method:
(§1) After a cultured cancer cell strain was treated with a test compound for a predetermined period, a cell growth inhibition test was performed by measuring the living cell count by the 3-(4,5-dimethylthiazol-2-yl)-2,5-diphenyltetrazoliumbromide (MTT) method.
(§2) Human endometrial cancer cell strain AN3CA, human ovary cancer cell strain IGROV1, and human colon cancer cell strain HT29 were seeded in a 96-well plate at 5000, 1000, and 5000 cells, respectively, per well. On the following day of seeding, a test compound having a predetermined concentration was added and the culture was continued at 37° C. in 5% CO2 for 3 days. On the final day of culture, an MTT reaction solution was added and the resulting mixture was reacted for 4 hours to form formazan by dehydrogenases contained in living cells. Subsequently, the culture broth was removed, DMSO was added to solubilize formazan, and the amount of produced formazan was determined by measuring absorbance at 540 nm using a microplate reader.
(§3) Since correlations of the amount of produced formazan and the living cell count had been confirmed, the cell growth rate was calculated by the following formula. Cell growth rate (T/C %) after addition of test compound=100×[(B−C)/(A−C)] A: Absorbance of well not containing test compound (final culture day) B: Absorbance of well containing test compound (final culture day) C: Absorbance of well immediately before addition of test compound (following day of cell seeding)
(§4) Furthermore, the cell growth rate at each concentration of serially diluted test compound solutions was obtained, and the concentration of the test compound resulting in a 50% growth rate was obtained as the GI50 value from two concentrations including 50% therebetween and the growth rates were selected.

For experiment [4], the system named is human ovary cancer cell strain IGROV1. Description: Cell growth inhibition test (MTT), IGROV1. It counts as cell-based. The following applies: IGROV-1, 72 h, IGROV1, 3 days culture, read-out: concentration exhibiting anti-cell effect (GI50). As to the method:
as §1, §2, §3, §4

The subject of experiment [5] is human colon cancer cell strain HT29. Description: Cell growth inhibition test (MTT), HT29. It counts as cell-based. The settings on record: HT-29, 72 h, HT29, 3 days culture, read-out: concentration exhibiting anti-cell effect (GI50). As to the method:
as §1, §2, §3, §4

A value given as a limit tells only on which side of the number the result lay.

Chain of PI3Kα (P42336 whole entry, species assumed): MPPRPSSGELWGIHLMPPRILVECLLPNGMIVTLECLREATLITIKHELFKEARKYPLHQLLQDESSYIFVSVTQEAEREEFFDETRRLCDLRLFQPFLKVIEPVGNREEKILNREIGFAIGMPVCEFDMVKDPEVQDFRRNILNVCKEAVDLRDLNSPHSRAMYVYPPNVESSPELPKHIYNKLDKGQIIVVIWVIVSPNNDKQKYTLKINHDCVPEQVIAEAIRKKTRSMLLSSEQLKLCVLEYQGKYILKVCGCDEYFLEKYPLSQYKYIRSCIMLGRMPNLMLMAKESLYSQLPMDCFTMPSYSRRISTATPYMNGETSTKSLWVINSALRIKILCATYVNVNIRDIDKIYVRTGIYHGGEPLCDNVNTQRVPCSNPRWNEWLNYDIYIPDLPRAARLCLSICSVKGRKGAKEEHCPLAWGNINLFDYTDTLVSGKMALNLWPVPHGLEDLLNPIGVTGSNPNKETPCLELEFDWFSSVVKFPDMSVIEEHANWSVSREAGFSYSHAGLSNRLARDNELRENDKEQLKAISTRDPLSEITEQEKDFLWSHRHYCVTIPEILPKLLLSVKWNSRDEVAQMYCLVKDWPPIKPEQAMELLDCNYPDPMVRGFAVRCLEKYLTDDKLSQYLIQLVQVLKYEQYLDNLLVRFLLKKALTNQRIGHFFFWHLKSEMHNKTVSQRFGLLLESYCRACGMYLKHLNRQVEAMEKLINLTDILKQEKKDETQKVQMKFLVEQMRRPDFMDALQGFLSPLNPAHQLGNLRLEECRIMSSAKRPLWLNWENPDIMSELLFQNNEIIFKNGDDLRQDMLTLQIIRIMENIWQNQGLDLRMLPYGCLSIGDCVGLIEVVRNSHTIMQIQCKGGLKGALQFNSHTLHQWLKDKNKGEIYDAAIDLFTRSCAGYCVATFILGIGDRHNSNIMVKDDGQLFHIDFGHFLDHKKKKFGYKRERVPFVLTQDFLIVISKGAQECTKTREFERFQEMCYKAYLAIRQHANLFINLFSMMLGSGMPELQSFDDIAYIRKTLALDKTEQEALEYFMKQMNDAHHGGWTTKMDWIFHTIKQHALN
Chain of PI3Kα (P27986 whole entry partner, species assumed): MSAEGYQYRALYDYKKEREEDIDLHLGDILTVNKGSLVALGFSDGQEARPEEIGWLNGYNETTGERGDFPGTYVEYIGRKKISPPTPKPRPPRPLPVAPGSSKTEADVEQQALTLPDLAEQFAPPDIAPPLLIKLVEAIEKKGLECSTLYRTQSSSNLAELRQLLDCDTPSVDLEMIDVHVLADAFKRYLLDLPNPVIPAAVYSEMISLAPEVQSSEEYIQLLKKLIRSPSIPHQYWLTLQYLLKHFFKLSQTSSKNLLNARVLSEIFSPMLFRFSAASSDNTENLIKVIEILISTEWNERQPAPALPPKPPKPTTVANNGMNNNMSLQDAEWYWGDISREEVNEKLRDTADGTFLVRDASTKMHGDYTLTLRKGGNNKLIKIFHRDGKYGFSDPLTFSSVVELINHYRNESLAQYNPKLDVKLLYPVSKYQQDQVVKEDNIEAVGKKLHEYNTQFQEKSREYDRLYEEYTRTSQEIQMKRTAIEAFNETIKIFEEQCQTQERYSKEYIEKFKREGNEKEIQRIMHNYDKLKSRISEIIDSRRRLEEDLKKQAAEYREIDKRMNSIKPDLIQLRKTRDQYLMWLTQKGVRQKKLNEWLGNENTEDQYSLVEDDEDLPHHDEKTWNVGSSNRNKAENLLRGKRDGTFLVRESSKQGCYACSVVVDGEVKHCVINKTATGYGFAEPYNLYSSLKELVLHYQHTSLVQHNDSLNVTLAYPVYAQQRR
T1 sequence (P42345 1362-2549): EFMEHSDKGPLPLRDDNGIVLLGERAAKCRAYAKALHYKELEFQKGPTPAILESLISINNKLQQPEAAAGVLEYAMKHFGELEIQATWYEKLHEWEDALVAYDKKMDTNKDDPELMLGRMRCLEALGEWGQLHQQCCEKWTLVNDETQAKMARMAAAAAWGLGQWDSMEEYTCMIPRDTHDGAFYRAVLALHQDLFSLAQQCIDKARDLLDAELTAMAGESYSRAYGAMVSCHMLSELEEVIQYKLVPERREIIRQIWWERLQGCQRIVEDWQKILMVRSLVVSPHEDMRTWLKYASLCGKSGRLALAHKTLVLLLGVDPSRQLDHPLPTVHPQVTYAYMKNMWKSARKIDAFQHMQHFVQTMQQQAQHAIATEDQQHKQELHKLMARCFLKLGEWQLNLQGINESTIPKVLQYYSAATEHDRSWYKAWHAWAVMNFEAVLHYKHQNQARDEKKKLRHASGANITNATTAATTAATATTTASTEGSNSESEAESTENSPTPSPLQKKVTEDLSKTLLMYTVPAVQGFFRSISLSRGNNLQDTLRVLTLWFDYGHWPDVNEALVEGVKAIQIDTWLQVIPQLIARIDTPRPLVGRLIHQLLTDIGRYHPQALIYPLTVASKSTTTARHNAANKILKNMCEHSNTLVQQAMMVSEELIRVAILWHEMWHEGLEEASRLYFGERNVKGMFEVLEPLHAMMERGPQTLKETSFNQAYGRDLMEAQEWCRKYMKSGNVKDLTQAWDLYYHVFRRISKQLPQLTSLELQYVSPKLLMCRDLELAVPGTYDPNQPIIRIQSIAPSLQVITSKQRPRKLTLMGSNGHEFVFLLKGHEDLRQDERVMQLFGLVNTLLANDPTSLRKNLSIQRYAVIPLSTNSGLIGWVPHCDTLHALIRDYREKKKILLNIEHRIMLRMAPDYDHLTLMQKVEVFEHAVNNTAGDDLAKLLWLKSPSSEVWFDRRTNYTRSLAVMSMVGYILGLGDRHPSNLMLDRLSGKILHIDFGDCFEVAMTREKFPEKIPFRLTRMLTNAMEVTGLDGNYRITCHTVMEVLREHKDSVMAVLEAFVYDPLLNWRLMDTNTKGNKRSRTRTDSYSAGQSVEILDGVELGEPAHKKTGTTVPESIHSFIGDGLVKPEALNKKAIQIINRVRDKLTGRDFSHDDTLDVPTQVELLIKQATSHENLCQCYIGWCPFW

`Cc1nc(N)ncc1-c1nc(N2CCOCC2)c2nc(N3CC[C@H](NS(C)(=O)=O)C3)n(CC3CC3)c2n1` [Example 73, N-{(3S)-1-[2-(2-Amino-4-methylpyrimidin-5-yl)-9-(cyclopropylmethyl)-6-morpholin-4-yl-9H-purin-8-yl]pyrrolidin-3-yl}methanesulfonamide]: the IC50 in experiment [1] was below 10 nM; in experiment [2] it was at least 500 nM. The GI50 in experiment [3], in experiment [4] and in experiment [5] was at most 5000 nM throughout.
`CNc1ncc(-c2nc(N3CCOCC3)c3nc(N4CCN(S(C)(=O)=O)CC4)n(CC4CCOC4)c3n2)cn1` (stereo not shown) [Example 25, N-Methyl-5-{8-[4-(methylsulfonyl)piperazin-1-yl]-6-morpholin-4-yl-9-(tetrahydrofuran-3-ylmethyl)-9H-purin-2-yl}pyrimidin-2-amine]: the half-inhibitory concentration (IC50) lay in the range of 20 to 50 nM in experiment [1] and 30 to 100 nM in experiment [2]. Further, the GI50 in experiment [3], in experiment [4] and in experiment [5] was at most 5000 nM throughout.
`CNc1ncc(-c2nc(N3CCOCC3)c3nc(N4CCN(S(C)(=O)=O)CC4)n(CC4CC4)c3n2)cn1` [Example 4, 5-{9-(Cyclopropylmethyl)-8-[4-(methylsulfonyl)piperazin-1-yl]-6-morpholin-4-yl-9H-purin-2-yl}-N-methylpyrimidin-2-amine]: the IC50 in experiment [1] lay within 10 to 20 nM; in experiment [2], 30 to 100 nM. Further, the GI50 in experiment [3], in experiment [4] and in experiment [5] was at most 5000 nM throughout.
In the case of `CNCC(=O)N1CCN(c2nc3c(N4CCOCC4)nc(-c4cnc(N)nc4)nc3n2CC2CC2)CC1` [Example 41, 5-[9-(Cyclopropylmethyl)-8-{4-[(methylamino)acetyl]piperazin-1-yl}-6-morpholin-4-yl-9H-purin-2-yl]pyrimidin-2-amine], the IC50 in experiment [1] is below 10 nM; in experiment [2], 30 to 100 nM. The GI50 in experiment [3], in experiment [4] and in experiment [5] was at most 5000 nM each time.
In the case of `CC(O)C(=O)N1[C@H](C)CN(c2nc3c(N4CCOCC4)nc(-c4cnc(N)nc4)nc3n2CC(F)(F)F)C[C@@H]1C` (stereo partly drawn) [Example 124, 1-{4-[2-(2-Aminopyrimidin-5-yl)-6-morpholin-4-yl-9-(2,2,2-trifluoroethyl)-9H-purin-8-yl]-cis-2,6-dimethylpiperazin-1-yl}-1-oxopropan-2-ol], the figures for the IC50 in experiment [1] and in experiment [2] were 10 to 20 nM and below 10 nM, respectively. The GI50 in experiment [3], in experiment [4] and in experiment [5] was at most 5000 nM each time.
Take `Nc1ncc(-c2nc(N3CCOCC3)c3nc(N4CCNCC4)n(CC4CC4)c3n2)cn1` [Example 19, 5-[9-(Cyclopropylmethyl)-6-morpholin-4-yl-8-piperazin-1-yl-9H-purin-2-yl]pyrimidin-2-amine]: the IC50 in experiment [1] was in the range of 10 to 20 nM; in experiment [2], 30 to 100 nM. The GI50 in experiment [3], in experiment [4] and in experiment [5] was at most 5000 nM in each case.
Regarding `C[C@H]1CN(c2nc3c(N4CCOCC4)nc(-c4cnc(N)nc4)nc3n2CC2CC2)CCN1` [Example 91, 5-{9-(Cyclopropylmethyl)-8-[(3S)-3-methylpiperazin-1-yl]-6-morpholin-4-yl-9H-purin-2-yl}pyrimidin-2-amine], the results for the half-maximal inhibitory concentration (IC50) in experiment [1] and in experiment [2] were below 10 nM and 10 to 30 nM, respectively. The GI50 in experiment [3], in experiment [4] and in experiment [5] was at most 5000 nM throughout.
In the case of `CNc1ncc(-c2nc(N3CCOCC3)c3nc(N4C[C@@H](C)N[C@@H](C)C4)n(CC4CC4)c3n2)cn1` [Example 16, 5-{9-(Cyclopropylmethyl)-8-(cis-3,5-dimethylpiperazin-1-yl)-6-morpholin-4-yl-9H-purin-2-yl}-N-methylpyrimidin-2-amine], the IC50 in experiment [1] was 20 to 50 nM; in experiment [2] it was 30 to 100 nM. The GI50 in experiment [3], in experiment [4] and in experiment [5] was at most 5000 nM in each case.
